The values below come from patent publication US11299487B2, “Compounds and compositions as modulators of TLR signaling” (Neuropore Therapies, Inc., priority 2019, dated 2022).

Where only a bound is given, the exact number is not on record here.

Test [1] addresses T1, human TLR2 (Homo sapiens, UniProt O60603).
T1 construct: host or cells: HEK-Blue hTLR2 (HEK-293)
Briefly: HEK-Blue hTLR2 antagonism assay (SEAP reporter) with agonist Pam3CSK4 (TLR1/2 agonist). Particulars: Table A; HEK-Blue hTLR2 cells, ~3×EC50 Pam3CSK4, 18 h, SEAP OD 655 nm, 8-point dilutions. Type of test: cell-based. How it is done:
(§1) Synthetic diacylated lipoprotein (Pam2CSK4, TLR2/6 agonist) and synthetic triacylated lipoprotein (Pam3CSK4, TLR1/2 agonist) were obtained from InvivoGen and were dissolved in endotoxin-free water to a concentration 1 mg/mL, vortexed until complete solubilization, and stored in aliquots at −20° C. Prior to addition to cells, an aliquot of the dissolved ligand was vortexed shortly and then was diluted in medium to 25 ng/mL Pam2CSK4 or 1000 ng/mL Pam3CSK4.
(§2) Test compounds were solubilized fresh to 10-20 mM stocks in DMSO and sonicated for 5-10 minutes in a water bath sonicator. Serial dilutions were prepared in DMSO, and then diluted in medium. The final concentration of DMSO used in the assay was 1%.
(§3) HEK-Blue hTLR2 reporter cells (InvivoGen) are HEK-293 cells stably expressing both the human TLR2 gene and a secreted embryonic alkaline phosphatase (SEAP) reporter construct downstream of NFκB promotor sites. HEK-Blue hTLR2 reporters were cultured according to manufacturer's protocol using Dulbecco's Modified Eagle Medium (DMEM; Gibco) containing 1× GlutaMax (Gibco), 10% heat-inactivated Fetal Bovine Serum (Gibco), Pen-Strep (50 U/mL penicillin, 50 μg/mL streptomycin, Gibco), 100 μg/mL Normocin (InvivoGen), and the selective antibiotic, 1×HEK-Blue Selection (InvivoGen). Quanti-Blue reagent (InvivoGen) for detection and quantification of secreted alkaline phosphatase was dissolved in 100 mL of endotoxin-free water, warmed to 37° C. for 30 minutes and then filtered using a 0.2 μm membrane.
(§4) On day 1, 50 μL of each test compound dilution in duplicates or a vehicle control was added to each well of a 96-well plate followed by addition of 150 μL of HEK-Blue hTLR2 cell suspension (1×10^5 cells/well) and incubated at 37° C./5% CO2 for 2 h. Next, 50 μL of an approximate 3×EC50 concentration of each agonist (Pam2CSK4 or Pam3CSK4) was added to the wells containing test compounds or the vehicle control. The plates were then incubated at 37° C./5% CO2 for 18 h. For each assay run, non-treated HEK-Blue hTLR2 cells were treated with serial dilutions of agonists to determine EC50 values for the respective run.
(§5) On day 2, secreted alkaline phosphatase (SEAP) activity was detected in cell culture supernatants. In brief, 20 μL was collected from each well and transferred to a 96-well plate. Next, 200 μL of Quanti-Blue detection reagent was added to each well. Plates were incubated at room temperature for 15 min. and SEAP activity was assessed by spectrophotometer OD reading at 655 nm. […] IC50 values were calculated based on 8-point dilutions for each compound.

Test [2] concerns the target T1, human TLR2. As to the kind of experiment: HEK-Blue hTLR2 antagonism assay (SEAP reporter) with agonist Pam2CSK4 (TLR2/6 agonist). Particulars: Table A; HEK-Blue hTLR2 cells, ~3×EC50 Pam2CSK4, 18 h, SEAP OD 655 nm, 8-point dilutions. The format is cell-based. How it is done:
as §1, §2, §3, §4, §5

T1 sequence (O60603 21-784): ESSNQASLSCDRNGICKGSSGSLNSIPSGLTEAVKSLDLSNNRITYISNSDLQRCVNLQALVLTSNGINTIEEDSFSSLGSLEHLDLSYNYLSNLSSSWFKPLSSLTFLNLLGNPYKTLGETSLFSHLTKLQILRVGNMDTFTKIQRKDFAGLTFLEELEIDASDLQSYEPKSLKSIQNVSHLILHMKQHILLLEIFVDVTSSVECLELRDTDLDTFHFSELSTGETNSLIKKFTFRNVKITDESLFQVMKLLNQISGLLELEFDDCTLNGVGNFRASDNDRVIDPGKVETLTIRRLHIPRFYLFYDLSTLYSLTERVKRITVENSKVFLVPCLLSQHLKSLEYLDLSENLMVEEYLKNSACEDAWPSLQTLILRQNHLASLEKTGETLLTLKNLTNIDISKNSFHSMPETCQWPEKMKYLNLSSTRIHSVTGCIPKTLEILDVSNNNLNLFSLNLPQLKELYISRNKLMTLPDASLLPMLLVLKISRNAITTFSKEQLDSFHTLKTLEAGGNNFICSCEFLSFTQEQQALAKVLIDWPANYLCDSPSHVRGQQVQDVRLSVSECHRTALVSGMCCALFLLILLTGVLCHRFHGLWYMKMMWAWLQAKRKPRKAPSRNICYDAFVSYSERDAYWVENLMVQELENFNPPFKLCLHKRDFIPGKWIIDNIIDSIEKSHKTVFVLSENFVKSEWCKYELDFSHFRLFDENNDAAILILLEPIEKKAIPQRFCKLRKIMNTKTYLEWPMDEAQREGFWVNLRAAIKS

Turning to `COc1cc(-c2cnn(-c3cccc(Cl)c3)c2)cc(C=O)c1O` [Compound A3, 5-(1-(3-chlorophenyl)-1H-pyrazol-4-yl)-2-hydroxy-3-methoxybenzaldehyde], the IC50 on human TLR2 [1] turned out to be 8.3 µM; at human TLR2 [2] it was 9.9 µM.

For `COc1cc(-c2cnn(Cc3ccccc3)c2)cc(C=O)c1O` [Compound A4, 5-(1-benzyl-1H-pyrazol-4-yl)-2-hydroxy-3-methoxybenzaldehyde], the IC50 on human TLR2 [1] came to 10.5 µM; at human TLR2 [2] it was 8.5 µM.

Take `COc1cc(-c2cnn(C3CCOCC3)c2)cc(C=O)c1O` [Compound A5, 2-hydroxy-3-methoxy-5-(1-(tetrahydro-2H-pyran-4-yl)-1H-pyrazol-4-yl)benzaldehyde]: the 50% inhibitory concentration (IC50) at human TLR2 [1] and at human TLR2 [2] was greater than 100 µM each time.

As for `COc1cc(-c2cnn(-c3ccc(F)cc3)c2)cc(C=O)c1O` [Compound A6, 5-(1-(4-fluorophenyl)-1H-pyrazol-4-yl)-2-hydroxy-3-methoxybenzaldehyde], the 50% inhibitory concentration (IC50) on human TLR2 [1] was 12 µM; on human TLR2 [2], 14.1 µM.

For `COc1cc(-c2cnn(-c3cccc(C(F)(F)F)c3)c2)cc(C=O)c1O` [Compound A9, 2-hydroxy-3-methoxy-5-(1-(3-(trifluoromethyl)phenyl)-1H-pyrazol-4-yl)benzaldehyde], the IC50 on human TLR2 [1] was determined as 5.1 µM; at human TLR2 [2], 3.8 µM.

For `COc1ccc(Cn2cc(-c3cc(C=O)c(O)c(OC)c3)cn2)cc1` [Compound A10, 2-hydroxy-3-methoxy-5-(1-(4-methoxybenzyl)-1H-pyrazol-4-yl)benzaldehyde], the IC50 at human TLR2 [1] and on human TLR2 [2] was 5.2 µM throughout.

Consider `O=Cc1cc(-c2cnn(-c3ccccc3)c2)cc(F)c1O` [Compound A11, 3-fluoro-2-hydroxy-5-(1-phenyl-1H-pyrazol-4-yl)benzaldehyde], for which the IC50 was found to be 2 µM on human TLR2 [1] and 2.3 µM at human TLR2 [2].

For the compound `Cc1cc(-c2cnn(-c3ccccc3)c2)cc(Cl)c1O` [Compound A17, 2-chloro-6-methyl-4-(1-phenyl-1H-pyrazol-4-yl)phenol], the IC50 at human TLR2 [1] is 43.4 µM; at human TLR2 [2], 52.6 µM.

Consider `Oc1c(F)cc(-c2cnn(-c3ccccc3)c2)cc1F` [Compound A18, 2,6-difluoro-4-(1-phenyl-1H-pyrazol-4-yl)phenol], for which the IC50 on human TLR2 [1] and on human TLR2 [2] was greater than 100 µM in each case.

Turning to `O=Cc1cc(-c2cnn(-c3ccc(N4CCCCC4)cc3)c2)cc(F)c1O` [Compound A20, 3-fluoro-2-hydroxy-5-(1-(4-(piperidin-1-yl)phenyl)-1H-pyrazol-4-yl)benzaldehyde], the half-maximal inhibitory concentration (IC50) was found to be 0.2 µM at human TLR2 [1] and 0.5 µM on human TLR2 [2].

Regarding `O=Cc1cc(-c2cnn(-c3ccc(N4CCOCC4)cc3)c2)cc(F)c1O` [Compound A21, 3-fluoro-2-hydroxy-5-(1-(4-morpholinophenyl)-1H-pyrazol-4-yl)benzaldehyde], the figures for the IC50 on human TLR2 [1] and on human TLR2 [2] were 1.1 µM and 2.6 µM, respectively.

In the case of `O=Cc1cc(-c2cnn(-c3cccc(N4CCCCC4)c3)c2)cc(F)c1O` [Compound A23, 3-fluoro-2-hydroxy-5-(1-(3-(piperidin-1-yl)phenyl)-1H-pyrazol-4-yl)benzaldehyde], the half-maximal inhibitory concentration (IC50) on human TLR2 [1] was determined as 0.9 µM; at human TLR2 [2], 0.8 µM.

`O=Cc1cc(-c2cnn(-c3cccc(N4CCOCC4)c3)c2)cc(F)c1O` [Compound A24, 3-fluoro-2-hydroxy-5-(1-(3-morpholinophenyl)-1H-pyrazol-4-yl)benzaldehyde]: the results for the IC50 on human TLR2 [1] and at human TLR2 [2] were 5.4 µM and 4.3 µM, respectively.

For the compound `O=Cc1cc(-c2ccn(-c3ccc(N4CCCCC4)cc3)n2)cc(F)c1O` [Compound A28, 3-fluoro-2-hydroxy-5-(1-(4-(piperidin-1-yl)phenyl)-1H-pyrazol-3-yl)benzaldehyde], the 50% inhibitory concentration (IC50) stood at 0.8 µM on human TLR2 [1] and 0.9 µM at human TLR2 [2].

Regarding `O=Cc1cc(-c2ccn(-c3ccc(N4CCOCC4)cc3)n2)cc(F)c1O` [Compound A29, 3-fluoro-2-hydroxy-5-(1-(4-morpholinophenyl)-1H-pyrazol-3-yl)benzaldehyde], the half-inhibitory concentration (IC50) turned out to be 7.6 µM at human TLR2 [1] and 6.4 µM at human TLR2 [2].

`O=Cc1cc(-c2ccn(-c3cccc(N4CCCC4)c3)n2)cc(F)c1O` [Compound A30, 3-fluoro-2-hydroxy-5-(1-(3-(pyrrolidin-1-yl)phenyl)-1H-pyrazol-3-yl)benzaldehyde]: the concentration for half-maximal inhibition (IC50) at human TLR2 [1] was 2.2 µM; on human TLR2 [2] it was 2.1 µM.

With `O=Cc1cc(-c2ccn(-c3cccc(N4CCCCC4)c3)n2)cc(F)c1O` [Compound A31, 3-fluoro-2-hydroxy-5-(1-(3-(piperidin-1-yl)phenyl)-1H-pyrazol-3-yl)benzaldehyde], the half-maximal inhibitory concentration (IC50) is 6.2 µM on human TLR2 [1] and 3.4 µM on human TLR2 [2].

With `O=Cc1cc(-c2ccn(-c3cccc(N4CCOCC4)c3)n2)cc(F)c1O` [Compound A32, 3-fluoro-2-hydroxy-5-(1-(3-morpholinophenyl)-1H-pyrazol-3-yl)benzaldehyde], the IC50 at human TLR2 [1] amounted to 17.4 µM; at human TLR2 [2], 12.7 µM.

In the case of `Oc1c(F)cc(-c2cnn(-c3ccc(N4CCCC4)cc3)c2)cc1C1OCCCO1` [Compound A34, 2-(1,3-dioxan-2-yl)-6-fluoro-4-(1-(4-(pyrrolidin-1-yl)phenyl)-1H-pyrazol-4-yl)phenol], the IC50 is 3.9 µM at human TLR2 [1] and 6.9 µM at human TLR2 [2].

Regarding `CN1CCN(/N=C/c2cc(-c3cnn(-c4ccc(N5CCCC5)cc4)c3)cc(F)c2O)CC1` [Compound A35, (E)-2-fluoro-6-(((4-methylpiperazin-1-yl)imino)methyl)-4-(1-(4-(pyrrolidin-1-yl)phenyl)-1H-pyrazol-4-yl)phenol], the figures for the IC50 on human TLR2 [1] and on human TLR2 [2] were 0.7 µM and 1.6 µM, respectively.

With `Oc1c(F)cc(-c2cnn(-c3ccc(N4CCCC4)cc3)c2)cc1/C=N/N1CCN(C2CC2)CC1` [Compound A36, (E)-2-(((4-cyclopropylpiperazin-1-yl)imino)methyl)-6-fluoro-4-(1-(4-(pyrrolidin-1-yl)phenyl)-1H-pyrazol-4-yl)phenol], the IC50 at human TLR2 [1] and at human TLR2 [2] was greater than 100 µM throughout.

With `Oc1c(F)cc(-c2cnn(-c3ccc(N4CCCC4)cc3)c2)cc1/C=N/N1CCOCC1` [Compound A37, (E)-2-fluoro-6-((morpholinoimino)methyl)-4-(1-(4-(pyrrolidin-1-yl)phenyl)-1H-pyrazol-4-yl)phenol], the half-maximal inhibitory concentration (IC50) on human TLR2 [1] and at human TLR2 [2] was greater than 100 µM in each case.

For the compound `CC(=O)N/N=C/c1cc(-c2cnn(-c3ccc(N4CCCC4)cc3)c2)cc(F)c1O` [Compound A38, N′-(3-fluoro-2-hydroxy-5-(1-(4-(pyrrolidin-1-yl)phenyl)-1H-pyrazol-4-yl)benzylidene)acetohydrazide], the half-maximal inhibitory concentration (IC50) at human TLR2 [1] and at human TLR2 [2] was 0.4 µM throughout.

Consider `Oc1c(F)cc(-c2cnn(-c3ccc(N4CCCC4)cc3)c2)cc1/C=N/c1ccccc1` [Compound A39, (E)-2-fluoro-6-((phenylimino)methyl)-4-(1-(4-(pyrrolidin-1-yl)phenyl)-1H-pyrazol-4-yl)phenol], for which the IC50 on human TLR2 [1] and on human TLR2 [2] was 0.5 µM in each case.

For `Oc1c(F)cc(-c2cnn(-c3ccc(N4CCCC4)cc3)c2)cc1/C=N/Oc1ccccc1` [Compound A40, (E)-3-fluoro-2-hydroxy-5-(1-(4-(pyrrolidin-1-yl)phenyl)-1H-pyrazol-4-yl)benzaldehyde O-phenyl Oxime], the IC50 on human TLR2 [1] was 2.7 µM; at human TLR2 [2], 7.2 µM.

As usually defined, the IC50 is the concentration that gives 50% inhibition.
